How the values were obtained:
c-Kit = c-Kit (Homo sapiens, UniProt P10721); assay: c-Kit biochemical assay (per US 2007/0032519)
Description: The following Table 2 provides data indicating FLT3 ITD, FLT3 D835Y, and KIT biochemical activity, and BaF3 FLT3 ITD/F69L cellular inhibitory activity for exemplary compounds described in this disclosure. In the table below, activity is provided as follows: +++=0.0001<IC50<1 μM; ++=1 μM<IC50<10 μM, +=10 μM<IC50<200 μM. Assays for the biochemical activity of c-Kit and FMS were conducted according to those assays described in US Patent Application Publication number US 2007/0032519, the disclosure of which is hereby incorporated by reference in its entirety.

FLT3-D835Y = biological target: T1, FLT3-D835Y (Homo sapiens, UniProt P36888, D835Y); assay: FLT3-D835Y biochemical kinase assay (AlphaScreen)
T1 construct: purchased Invitrogen PV3967
T1 sequence (P36888 27-993 D835Y): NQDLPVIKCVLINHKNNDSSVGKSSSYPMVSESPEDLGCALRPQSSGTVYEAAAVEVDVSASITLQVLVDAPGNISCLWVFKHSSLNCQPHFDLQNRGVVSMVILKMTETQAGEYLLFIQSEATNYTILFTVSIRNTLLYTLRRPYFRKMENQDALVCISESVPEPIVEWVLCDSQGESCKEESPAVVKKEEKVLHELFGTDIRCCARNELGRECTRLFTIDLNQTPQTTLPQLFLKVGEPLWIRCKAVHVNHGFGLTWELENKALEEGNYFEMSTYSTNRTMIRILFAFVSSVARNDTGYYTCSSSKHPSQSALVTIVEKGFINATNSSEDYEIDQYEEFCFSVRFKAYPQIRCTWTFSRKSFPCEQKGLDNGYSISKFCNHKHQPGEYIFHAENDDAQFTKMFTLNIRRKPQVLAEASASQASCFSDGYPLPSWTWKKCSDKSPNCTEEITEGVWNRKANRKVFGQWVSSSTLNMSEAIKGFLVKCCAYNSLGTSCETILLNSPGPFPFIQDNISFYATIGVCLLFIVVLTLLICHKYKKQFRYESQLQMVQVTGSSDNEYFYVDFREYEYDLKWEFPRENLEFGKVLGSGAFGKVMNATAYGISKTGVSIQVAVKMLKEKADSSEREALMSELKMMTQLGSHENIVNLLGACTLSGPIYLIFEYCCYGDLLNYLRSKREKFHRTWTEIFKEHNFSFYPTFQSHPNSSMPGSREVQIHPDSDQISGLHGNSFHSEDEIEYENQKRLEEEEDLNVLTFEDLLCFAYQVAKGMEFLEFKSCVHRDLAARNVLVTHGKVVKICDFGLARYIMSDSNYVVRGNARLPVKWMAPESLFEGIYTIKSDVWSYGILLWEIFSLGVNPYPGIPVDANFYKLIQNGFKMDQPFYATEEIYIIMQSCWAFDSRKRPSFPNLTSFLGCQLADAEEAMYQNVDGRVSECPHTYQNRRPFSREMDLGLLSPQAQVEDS
In short: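 IC50 values reflect loss of AlphaScreen proximity signal (excitation 680 nm, emission 580 nm) from tyrosine phosphorylation of a biotinylated poly(Glu4-Tyr) substrate at 30 nM. ATP was 10 μM for the D835Y mutant and 100 μM for ITD. Detection used PY20 acceptor beads.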

Chain of c-Kit (P10721 26-976): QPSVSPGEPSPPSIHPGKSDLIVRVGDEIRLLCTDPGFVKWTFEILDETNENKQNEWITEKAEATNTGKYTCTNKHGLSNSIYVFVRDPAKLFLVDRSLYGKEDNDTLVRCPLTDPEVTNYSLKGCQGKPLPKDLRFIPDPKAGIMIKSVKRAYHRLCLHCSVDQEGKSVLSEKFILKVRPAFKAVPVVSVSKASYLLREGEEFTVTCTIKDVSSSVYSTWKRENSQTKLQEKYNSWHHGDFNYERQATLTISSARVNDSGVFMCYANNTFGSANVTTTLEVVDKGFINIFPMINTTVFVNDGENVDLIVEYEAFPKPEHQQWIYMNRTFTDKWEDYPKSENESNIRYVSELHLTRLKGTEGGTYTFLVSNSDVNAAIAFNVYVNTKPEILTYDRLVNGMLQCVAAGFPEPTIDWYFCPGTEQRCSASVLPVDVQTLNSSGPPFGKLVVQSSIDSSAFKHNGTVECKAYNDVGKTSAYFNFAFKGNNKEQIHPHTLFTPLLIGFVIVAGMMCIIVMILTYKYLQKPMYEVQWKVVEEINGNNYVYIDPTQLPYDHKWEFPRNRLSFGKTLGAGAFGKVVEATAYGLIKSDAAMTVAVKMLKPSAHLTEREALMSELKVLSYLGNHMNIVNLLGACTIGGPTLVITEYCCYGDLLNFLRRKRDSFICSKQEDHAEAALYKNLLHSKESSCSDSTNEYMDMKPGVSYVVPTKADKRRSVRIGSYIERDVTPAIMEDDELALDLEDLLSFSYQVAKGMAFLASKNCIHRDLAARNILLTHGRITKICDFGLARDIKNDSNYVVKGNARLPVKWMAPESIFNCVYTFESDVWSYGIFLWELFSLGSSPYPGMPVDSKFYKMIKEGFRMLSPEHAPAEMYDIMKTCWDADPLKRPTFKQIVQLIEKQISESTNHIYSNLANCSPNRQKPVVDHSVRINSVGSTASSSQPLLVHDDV

Row | Compound | IC50 (c-Kit) [µM] | IC50 (FLT3-D835Y) [µM]
1 | COc1ccc(-c2cnc3[nH]cc(-c4ccc5ncsc5c4)c3n2)cn1 [P-077, 6-[2-(6-methoxy-3-pyridyl)-5H-pyrrolo[2,3-b]pyrazin-7-yl]-1,3-benzothiazole] | 1 to 10 | 0.0001 to 1
2 | COc1cnc2[nH]cc(-c3ccc4ncn(C5CCNC5)c4c3)c2c1 (centres unmarked) [P-067, 5-methoxy-3-(3-pyrrolidin-3-ylbenzimidazol-5-yl)-1H-pyrrolo[2,3-b]pyridine] | 10 to 200 | 0.0001 to 1
3 | Cn1cc(-c2cnc3[nH]cc(-c4ccc5ncn(C)c5c4)c3c2)ccc1=O [P-118, 1-methyl-5-[3-(3-methylbenzimidazol-5-yl)-1H-pyrrolo[2,3-b]pyridin-5-yl]pyridin-2-one] | 1 to 10 | 0.0001 to 1
4 | CS(=O)(=O)Nc1ccc(-c2cnc3[nH]cc(-c4ccc5ncsc5c4)c3n2)cc1 [P-076, N-[4-[7-(1,3-benzothiazol-6-yl)-5H-pyrrolo[2,3-b]pyrazin-2-yl]phenyl]methanesulfonamide] | 1 to 10 | 0.0001 to 1

Continued, values first:

Row | IC50 (c-Kit) [µM] | IC50 (FLT3-D835Y) [µM] | Compound
5 | 10 to 200 | 1 to 10 | COc1cnc2[nH]cc(-c3cc4nc[nH]c4cc3C)c2c1 [P-026, 5-methoxy-3-(6-methyl-1H-benzimidazol-5-yl)-1H-pyrrolo[2,3-b]pyridine]
6 | 10 to 200 | 0.0001 to 1 | COc1cc(-c2cnc3[nH]cc(-c4ccc5ncsc5c4)c3n2)ccn1 [P-075, 6-[2-(2-methoxy-4-pyridyl)-5H-pyrrolo[2,3-b]pyrazin-7-yl]-1,3-benzothiazole]
7 | 10 to 200 | 1 to 10 | Cc1cc2[nH]cnc2cc1-c1c[nH]c2ncccc12 [P-025, 6-methyl-5-(1H-pyrrolo[2,3-b]pyridin-3-yl)-1H-benzimidazole]
8 | 10 to 200 | 0.0001 to 1 | COc1cnc2[nH]cc(-c3ccc4ncn(C5CCNCC5)c4c3)c2c1 [P-071, 5-methoxy-3-[3-(4-piperidyl)benzimidazol-5-yl]-1H-pyrrolo[2,3-b]pyridine]
9 | 1 to 10 | 0.0001 to 1 | COc1cnc2[nH]cc(-c3ccc4ncn(C5CCCCC5)c4c3)c2c1 [P-072, 1-cyclohexyl-6-(5-methoxy-1H-pyrrolo[2,3-b]pyridin-3-yl)benzimidazole]
10 | 10 to 200 | 0.0001 to 1 | CNS(=O)(=O)c1ccc(-c2cnc3[nH]cc(-c4ccc5ncsc5c4)c3n2)cc1 [P-078, 4-[7-(1,3-benzothiazol-6-yl)-5H-pyrrolo[2,3-b]pyrazin-2-yl]-N-methyl-benzenesulfonamide]

Reference: US10160755B2 (Plexxikon Inc., priority 2015, dated 2018)
